According to article PMC10101930 (Immunity, 2023):

Target: NHR-86 (Caenorhabditis elegans, UniProt Q965W2)
Assay: intrinsic tryptophan fluorescence quenching of purified LBD
Assay type: binding

Chain of NHR-86 (Q965W2 130-405): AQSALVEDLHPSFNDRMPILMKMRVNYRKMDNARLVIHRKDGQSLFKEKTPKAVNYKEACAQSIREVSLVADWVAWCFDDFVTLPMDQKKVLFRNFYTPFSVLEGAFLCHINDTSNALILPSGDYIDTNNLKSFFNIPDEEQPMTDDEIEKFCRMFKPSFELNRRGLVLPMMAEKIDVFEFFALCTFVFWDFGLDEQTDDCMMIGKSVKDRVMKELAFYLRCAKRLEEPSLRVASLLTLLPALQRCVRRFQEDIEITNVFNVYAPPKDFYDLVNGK

NC(=O)c1cccc2nc3ccccc3nc12 [PCN, phenazine-1-carboxamide]
Kd: 24.2 µM
